Data reported in publication PMC8782923, “A Klotho-derived peptide protects against kidney fibrosis by targeting TGF-β signaling” (Nature Communications, 2022).
“And” between values parts separate entries of the source, which are not always exact repeats. Identical values can stand only once.

Legend:
[1] = test system: ERK1/2, JNK and p38 phosphorylation in NRK-49F cells; experiment: TGF-β1-induced MAPK (ERK1/2, JNK, p38) phosphorylation in NRK-49F cells (Western blot); type: cell-based, rat; settings: KP1 10 µg/ml (3 μM) or ITD-1 3 μM 1 h, TGF-β1 2 ng/ml 45 min, individual values, n = 3, P <0.001, <0.001 and <0.001, Fig. 3n
Protocol: (§1) Normal rat kidney interstitial fibroblasts (NRK-49F) and human proximal tubular epithelial cells (HKC-8) were cultured at 37 °C. NRK-49F cells were serum-starved for 24 h and were pretreated with KP1 (10 µg/ml, 3 µM) for 1 h prior to incubation with TGF-β1 (#240-B; R&D Systems) at 2 ng/ml. Cells were collected at 45 min or 24 h after TGF-β1 treatment, respectively. Whole-cell lysates were prepared and subjected to Western blot analyses. For some experiments, cells were transiently transfected with expression vector human secreted Klotho (sKlotho) that only contains KL1 domain[48], by using Lipofectamine 2000 reagent (Invitrogen, Grand Island, NY) prior to treatment with TGF-β1.
(§2) Western blot analysis was performed as previously described. […] Image J (v1.8.0) was used to quantify Western blot results.

UUO mice = experiment: KP1 versus ITD-1 in UUO mice: renal TGF-β signaling and fibrosis proteins (Western blot); type: in vivo, mouse; set-up: renal p-Smad2 (Western blot) / renal p-Smad3 (Western blot) / renal p-p38 (Western blot) / renal p-JNK (Western blot) / renal collagen I (Western blot) / renal fibronectin (Western blot) / renal α-SMA (Western blot): unit not given here; settings: KP1 1 mg/kg (0.31 μM/kg) or ITD-1 0.31 μM/kg, individual animals
Protocol: (§3) Male BALB/c mice weighing 20–22 g were purchased from Beijing Vital River Laboratory Animal Technology Co. and housed in a standard environment which was characterized by 12 h light/dark cycle, 22–25 °C, and 40–60% humidity with free access to water and chow (catalog number: SWS9102). Mice have randomly divided into 3 groups: (i) sham controls; (ii) UIRI or UUO mice treated with vehicle; (iii) UIRI or UUO mice treated with KP1. A renal UIRI model was performed. Briefly, under general anesthesia, mice were made a midline abdominal incision, and the left kidney was clipped for 35 min by a vascular clamp. Mice were kept on the heating block at 37 °C during ischemia. The contralateral right kidney was removed on day 10 after ischemia–reperfusion. Mice were sacrificed 11 days after IRI. Blood and kidneys were collected for analysis. UUO model was established. Briefly, the left ureter of the lower pole of the kidney was obstructed by 3–0 surgical suture. KP1 peptide was dissolved in 0.01 M acetic acid and administrated intravenously via tail vein at concentration of 1 mg/day/kg (0.31 μM/day/kg) body weight for 6 days. For some experiments, ITD-1 (S6713, Selleck) was dissolved in PBS with 0.025% DMSO and 0.1% Tween 80 buffer and injected via tail vein at 0.31 μM/day/kg body weight. All animal studies were approved by the Laboratory Animal Ethics Committee of Nanfang Hospital, Southern Medical University.
Western blot analysis was performed as previously described. The primary antibodies used were as follows: anti-fibronectin (dilution 1:10000; F3648; Sigma), anti-α-SMA (dilution 1:1000; ab7817; Abcam), anti-collagen-1 (dilution 1:1000; BM4017; Boster), anti-p-Smad3 (dilution 1:1000; #9520), anti-p-Smad2 (dilution 1:1000; #3104s), anti-p-ERK (dilution 1:1000; #9101s), anti-p-p38 (dilution 1:1000; #9211s), anti-p-JNK (dilution 1:1000; #9251s), anti-Smad2/3 (dilution 1:1000; #8685s), anti-JNK (dilution 1:1000; #9252), anti-ERK (dilution 1:1000; #4695), anti-p38 (dilution 1:1000; #8690; Cell Signaling Technology), anti-Klotho (dilution 1:1000; AF1819; R&D System), anti-TβR2 (dilution 1:1000; sc-7791; Santa Cruz), anti-TGF-β1 (dilution 1:1000; ab92486; Abcam), anti-GAPDH (dilution 1:5000; LK9002L; Sungene, Tianjin), anti-FITC (dilution 1:1000; PA1-26793; Invitrogen), anti-F4/80 (dilution 1:1000; 14-4801-82, eBioscience). The integration of all blots images was performed on Adobe Photoshop CS6. Graphpad Prism 8 was used to get statistics figures. Image J (v1.8.0) was used to quantify Western blot results. […]
in vivo. UUO mice were treated with KP1 (1 mg/kg, 0.31 μM/kg) or ITD-1 (0.31 μM/kg). We stern blot analyses (a, b) and quantitative data of p-Smad2 (c), p-Smad3 (d), p-ERK1/2 (e), p-JNK (f) and p-p38 […]
n=6 biologically independent animals. (h-k) Western blot analyses (h) and quantitative data of fibronectin (i), α-SMA (j) and Collagen Ⅰ (k) are shown. P values (from left to right): 0.001, 0.627, […]
independent animals. Data are presented as mean values +/- SEM. Statistical significance was determined by one-way ANOVA followed by Dunnett’s T3 post hoc test.
(1 picture or pasted object on this page, not shown here)

[2] = test system: Smad2/3 phosphorylation in NRK-49F cells; experiment: TGF-β1-induced Smad2/3 phosphorylation in NRK-49F cells (Western blot); type: cell-based, rat; settings: KP1 10 µg/ml (3 μM) or ITD-1 3 μM 1 h, TGF-β1 2 ng/ml 45 min, individual values, n = 3, P <0.001, 0.008 and <0.001, Fig. 3m
Protocol: as §1, §2

UIRI mice = experiment: Blood calcium and phosphorus in UIRI mice; type: in vivo, mouse
Protocol: as §3

[3] = target: T1, TGF-β receptor 2 (TβR2), recombinant (Homo sapiens, UniProt P37173); experiment: SPR affinity measurement (Biacore T200); type: binding; settings: 25 °C, 1:1 fit, KP1 0.78–25 μM, KP12 1.56–100 μM, representative of two independent experiments, read-out: ka
T1 construct: purchased Sino Biological Inc., Beijing, China 10358-H03H-B
T1 sequence (P37173 23-159 limits assumed): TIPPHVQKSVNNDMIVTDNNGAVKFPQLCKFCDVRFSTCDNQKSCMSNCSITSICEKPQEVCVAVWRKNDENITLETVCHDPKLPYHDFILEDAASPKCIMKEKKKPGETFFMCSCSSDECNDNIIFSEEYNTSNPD
Protocol: The SPR analyses were performed on a Biacore T200 apparatus (GE Healthcare, Uppsala Sweden) at 25 °C. Recombinant TGF-β receptor 2 protein (43.4 kDa, >95% as determined by SDS-PAGE) (10358-H03H-B; Sino Biological Inc., Beijing, China) diluted at 50 µg/ml in 10 mM acetate pH 4.0, was covalently immobilized on a CM5 sensor chip (GE Healthcare) using amine-coupling chemistry. Samples of KP1 (3.229 kDa, HPLC purity >95%) or KP12 (3.6 kDa, HPLC purity >95%) in PBS at various concentrations were injected at a flow rate of 60 μl/min. The injection time was set to 180 s, the dissociation time was set to 540 s, and 50 mM Gly-HCl (pH = 2.5) was used as the regeneration buffer. Data were fitted to a 1:1 binding model to obtain KD. All results presented were representative of double or triplicated injections in an interleaved manner. Two independent experiments were performed.

kon [3] [M⁻¹ s⁻¹] | Compound | p-p38 (quantitative Western blot), KP1 versus ITD-1 [1] | renal collagen I (Western blot) (UUO mice; n = 6, P 0.001, 0.477, 0.001, Supplementary Fig. 5k) | renal fibronectin (Western blot) (UUO mice; n = 6, P 0.001, 0.627, <0.001, Supplementary Fig. 5i) | renal p-ERK1/2 (Western blot) (UUO mice; n = 6, P 0.004, 0.988, 0.002, Supplementary Fig. 5e) | renal α-SMA (Western blot) (UUO mice; n = 6, P 0.006, 0.497, 0.007, Supplementary Fig. 5j) | renal p-Smad3 (Western blot) (UUO mice; n = 6, P <0.001, 0.438, <0.001, Supplementary Fig. 5d) | renal p-JNK (Western blot) (UUO mice; n = 6, P <0.001, 0.758, <0.001, Supplementary Fig. 5f) | renal p-p38 (Western blot) (UUO mice; n = 6, P <0.001, 1.00, 0.001, Supplementary Fig. 5g) | renal p-Smad2 (Western blot) (UUO mice; n = 6, P <0.001, 1.00, <0.001, Supplementary Fig. 5c) | p-Smad3 (quantitative Western blot), KP1 versus ITD-1 [2] | phosphorus (UIRI mice; UIRI mice + KP1, individual animals, n = 6, UIRI vs UIRI/KP1 P=0.220, Supplementary Table 2) | calcium (UIRI mice; UIRI mice + KP1, individual animals, n = 6, UIRI vs UIRI/KP1 P=0.798, Supplementary Table 2) | effect on blood phosphorus and calcium (in words) (UIRI mice; compared to the UIRI group)
– | CCOC(=O)C1=C(C)NC2=C(C(=O)CC(C)(C)C2)C1c1ccc(-c2ccccc2)cc1 (centres unmarked) [ITD-1] | 2.793 and 1.62 and 1.25 | 6.627 and 4.346 and 7.91 and 8.759 and 4.669 and 8.535 | 9.72 and 9.315 and 3.815 and 3.805 and 3.523 and 5.024 | 11.5729 and 8.005 and 9.67 and 4.8 and 3.482 and 4.512 | 10.3176 and 15.77 and 12.2484 and 11.8776 and 11.4615 and 9.704 | 6.279 and 6.866 and 5.7731 and 6.57 and 6.136 and 7.119 | 4.803 and 6.567 and 5.7 and 7.786 and 5.264 and 7.2 | 5.956 and 6.507 and 4.878 and 4.538 and 5.819 and 6.755 | 18.8987 and 13.9891 and 9.419 and 10.7729 and 8.909 and 13.9004 | 2.756 and 2.347 and 1.188 | – | – | –
408 | CC(C)C[C@H](NC(=O)[C@H](Cc1ccccc1)NC(=O)CNC(=O)[C@H](CC(=O)O)NC(=O)[C@@H]1CCCN1C(=O)[C@H](Cc1ccccc1)NC(=O)[C@@H](NC(=O)CNC(=O)[C@H](CCC(N)=O)NC(=O)[C@@H](N)Cc1ccccc1)[C@@H](C)O)C(=O)N[C@@H](Cc1c[nH]c2ccccc12)C(=O)N[C@@H](C)C(=O)N[C@H](C(=O)NCC(=O)N[C@@H](CO)C(=O)N[C@@H](C)C(=O)N[C@@H](C)C(=O)N[C@@H](Cc1ccc(O)cc1)C(=O)N[C@@H](CCC(N)=O)C(=O)N[C@H](C(=O)N[C@@H](CCC(=O)O)C(=O)NCC(=O)NCC(=O)N[C@@H](Cc1c[nH]c2ccccc12)C(=O)N[C@@H](CCC(N)=O)C(=O)N[C@@H](CCC(N)=O)C(=O)N[C@@H](Cc1c[nH]cn1)C(=O)NCC(=O)N[C@@H](CCCCN)C(=O)NCC(=O)O)[C@@H](C)O)C(C)C [KP1] | – | – | – | – | – | – | – | – | – | – | 4.92 mmol/L and 5.73 mmol/L and 6.63 mmol/L and 4.9 mmol/L and 3.76 mmol/L and 4.04 mmol/L | 2.71 mmol/L and 2.53 mmol/L and 2.54 mmol/L and 2.38 mmol/L and 2.93 mmol/L and 2.46 mmol/L | did not affect blood phosphorus and calcium level compared to the UIRI group
